Read-outs that look alike come from different tables or passages of the source.
Tests used:
ROCK = ROCK (Homo sapiens, UniProt Q13464); assay: ROCK radioactive assay ("33P"); format: biochemical
Text: If more than one value of Ki has been determined, the average Ki is indicated. If no value is indicated, then the Ki was not determined.

PKA = PKA (Homo sapiens, UniProt P17612); assay: PKA inhibition assay, coupled enzyme; format: biochemical; conditions: average Ki if more than one determined
Experimental: Compounds were screened for their ability to inhibit PKA using a standard coupled enzyme assay (Fox et al., Protein Sci, 1998, 7, 2249). Assays were carried out in a mixture of 100 mM HEPES (pH 7.5), 10 mM MgCl2, 25 mM NaCl, 1 mM DTT and 3% DMSO. Final substrate concentrations in the assay were 50 μM ATP (Sigma Chemicals) and 80 μM peptide (Kemptide, American Peptide, Sunnyvale, Calif.). Assays were carried out at 30° C. and 18 nM PKA. Final concentrations of the components of the coupled enzyme system were 2.5 mM phosphoenolpyruvate, 300 μM NADH, 30 μg/ml pyruvate kinase and 10 μg/ml lactate dehydrogenase.
An assay stock buffer solution was prepared containing all of the reagents listed above, with the exception of ATP, and the test compound of the present invention. […] The plate was preincubated for 10 minutes at 30° C. and the reaction initiated by addition of 5 μl of ATP (final concentration 50 μM). Initial reaction rates were determined with a Molecular Devices SpectraMax Plus plate reader over a 15 minute time course. IC50 and Ki data were calculated from non-linear regression analysis using the Prism software package (GraphPad Prism version 3.0a for Macintosh, GraphPad Software, San Diego Calif., USA).

[1] = radioactive assay, average Ki if more than one determined, read-out: ROCK 33P Ki

ROCK, sequence (Q13464 whole entry): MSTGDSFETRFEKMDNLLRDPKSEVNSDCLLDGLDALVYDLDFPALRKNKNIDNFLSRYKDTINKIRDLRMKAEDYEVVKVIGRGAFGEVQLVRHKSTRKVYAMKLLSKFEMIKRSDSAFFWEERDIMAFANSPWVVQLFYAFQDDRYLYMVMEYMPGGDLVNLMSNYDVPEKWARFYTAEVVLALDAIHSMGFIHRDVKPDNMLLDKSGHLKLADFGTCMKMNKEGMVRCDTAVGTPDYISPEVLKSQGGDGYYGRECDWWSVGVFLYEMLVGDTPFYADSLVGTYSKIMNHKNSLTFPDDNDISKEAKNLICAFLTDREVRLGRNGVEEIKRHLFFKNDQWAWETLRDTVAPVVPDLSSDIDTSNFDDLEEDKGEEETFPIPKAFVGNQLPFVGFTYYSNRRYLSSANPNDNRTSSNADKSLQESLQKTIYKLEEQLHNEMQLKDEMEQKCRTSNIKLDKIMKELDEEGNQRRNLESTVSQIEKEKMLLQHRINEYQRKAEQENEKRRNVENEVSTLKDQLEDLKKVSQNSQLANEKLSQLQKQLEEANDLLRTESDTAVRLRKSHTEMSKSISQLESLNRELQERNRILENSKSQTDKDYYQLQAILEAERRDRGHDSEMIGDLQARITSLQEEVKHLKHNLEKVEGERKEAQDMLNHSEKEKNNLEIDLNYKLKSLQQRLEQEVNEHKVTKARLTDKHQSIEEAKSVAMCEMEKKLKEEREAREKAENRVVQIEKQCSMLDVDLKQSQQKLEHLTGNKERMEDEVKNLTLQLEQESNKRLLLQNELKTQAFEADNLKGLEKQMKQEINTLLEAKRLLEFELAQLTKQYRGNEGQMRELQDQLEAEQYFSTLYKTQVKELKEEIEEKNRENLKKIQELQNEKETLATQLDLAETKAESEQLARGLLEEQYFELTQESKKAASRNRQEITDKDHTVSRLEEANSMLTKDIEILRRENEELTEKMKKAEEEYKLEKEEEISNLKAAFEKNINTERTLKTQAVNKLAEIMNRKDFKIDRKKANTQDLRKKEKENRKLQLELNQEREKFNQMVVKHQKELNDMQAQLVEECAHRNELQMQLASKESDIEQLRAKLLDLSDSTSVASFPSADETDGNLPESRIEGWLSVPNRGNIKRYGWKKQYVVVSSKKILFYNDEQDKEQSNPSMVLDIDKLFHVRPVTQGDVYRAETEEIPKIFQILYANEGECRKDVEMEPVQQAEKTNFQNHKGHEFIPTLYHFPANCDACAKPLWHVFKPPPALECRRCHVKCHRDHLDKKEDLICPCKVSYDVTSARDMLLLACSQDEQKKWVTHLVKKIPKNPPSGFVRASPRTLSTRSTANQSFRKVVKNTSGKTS

SMILES	Ki (ROCK; [1]) [nM]	Ki (PKA) [nM]	Ki (ROCK) [nM]
CS(=O)(=O)N1CCC[C@H]1C(=O)Nc1nc(-c2c[nH]c3ncccc23)cs1 [II-229]	< 500	< 500	–
c1cnc2[nH]cc(-c3csc(NCCCN4CCOCC4)n3)c2c1 [II-197]	500 to 5000	500 to 5000	–
COc1cccc(CC(=O)N(CCCN2CCN(C)CC2)c2nc(-c3c[nH]c4ncccc34)cs2)c1 [II-202]	< 500	< 500	–
CS(=O)(=O)N1CCC[C@@H]1C(=O)Nc1nc(-c2c[nH]c3ncccc23)cs1 [II-230]	< 500	< 500	–
CC(=O)Nc1nc(-c2c[nH]c3ncccc23)cs1 [II-134]	< 500	500 to 5000	–
CS(=O)(=O)N[C@H](COCc1ccccc1)C(=O)Nc1nc(-c2c[nH]c3ncccc23)cs1 [II-232]	< 500	< 500	–
O=C(Cc1cccnc1)Nc1nc(-c2c[nH]c3ncc(F)cc23)cs1 [II-206]	< 500	< 500	–
NC(C(=O)Nc1nc(-c2c[nH]c3ncccc23)cs1)c1ccc(F)cc1 (stereo not drawn) [II-213]	< 500	< 500	–
O=C(c1nc(-c2c[nH]c3ncccc23)cs1)N1CCNCC1 [II-181]	< 500	< 500	–
c1cnc2[nH]cc(-c3csc(NCC4CCCO4)n3)c2c1 (stereo not drawn) [II-200]	500 to 5000	500 to 5000	–
O=C(Nc1nc(-c2c[nH]c3ncccc23)cs1)C(O)c1ccc(F)cc1F (stereo not drawn) [II-209]	< 500	< 500	–
NCC(C(=O)Nc1nc(-c2c[nH]c3ncccc23)cs1)c1ccc(F)cc1Cl (stereo not drawn) [II-196]	< 500	< 500	–
CN1CCN(CCCN(C(=O)Cc2ccccc2)c2nc(-c3c[nH]c4ncccc34)cs2)CC1 [II-201]	< 500	< 500	–
Nc1cccc(C(O)C(=O)Nc2nc(-c3c[nH]c4ncccc34)cs2)c1 (stereo not drawn) [II-212]	< 500	< 500	–
O=C(NC1CCNCC1)c1nc(-c2c[nH]c3ncccc23)cs1 [II-187]	< 500	< 500	–
CC(C(=O)Nc1nc(-c2c[nH]c3ncccc23)cs1)S(C)(=O)=O (stereo not drawn) [II-226]	< 500	< 500	–
CC(=O)NCC(=O)Nc1nc(-c2c[nH]c3ncccc23)cs1 [II-149]	< 500	500 to 5000	–
O=C1CCC(C(=O)Nc2nc(-c3c[nH]c4ncccc34)cs2)N1 (stereo not drawn) [II-153]	< 500	500 to 5000	–
C[C@H](NS(C)(=O)=O)C(=O)Nc1nc(-c2c[nH]c3ncccc23)cs1 [II-222]	< 500	< 500	–
CC(=O)NCCC(=O)Nc1nc(-c2c[nH]c3ncccc23)cs1 [II-164]	< 500	500 to 5000	–
O=C(NC1CCN(Cc2ccccc2)C1)c1nc(-c2c[nH]c3ncccc23)cs1 (stereo not drawn) [II-186]	< 500	500 to 5000	–
CS(=O)(=O)Nc1cccc(C(N)C(=O)Nc2nc(-c3c[nH]c4ncccc34)cs2)c1 (stereo not drawn) [II-219]	< 500	< 500	–
CN1CCN(CCCOc2cccc(CC(=O)Nc3nc(-c4c[nH]c5ncc(F)cc45)cs3)c2)CC1 [II-137]	< 500	500 to 5000	–
N#CC1(C(=O)Nc2nc(-c3c[nH]c4ncccc34)cs2)CC1 [II-133]	< 500	< 500	–

SMILES	Ki (ROCK; [1]) [nM]	Ki (PKA) [nM]	Ki (ROCK) [nM]
CC(C)NC(=O)Nc1nc(-c2c[nH]c3ncccc23)cs1 [II-244]	< 500	500 to 5000	–
O=C1CC[C@H](C(=O)Nc2nc(-c3c[nH]c4ncccc34)cs2)O1 [II-155]	< 500	< 500	–
O=C(Nc1nc(-c2c[nH]c3ncccc23)cs1)C1(O)CC1 [II-158]	< 500	< 500	–
O=C(Cc1cccc(NS(=O)(=O)CCCN2CCOCC2)c1)Nc1nc(-c2c[nH]c3ncccc23)cs1 [II-169]	< 500	< 500	–
CO[C@@H](C)C(=O)Nc1nc(-c2c[nH]c3ncccc23)cs1 [II-144]	< 500	500 to 5000	–
CCC(=O)Nc1nc(-c2c[nH]c3ncccc23)cs1 [II-163]	< 500	500 to 5000	–
O=C(NCc1cccc(S(=O)(=O)N2CCOCC2)c1)c1csc(-c2c[nH]c3ncccc23)c1 [II-130]	< 500	500 to 5000	–
O=C(CO)Nc1nc(-c2c[nH]c3ncccc23)cs1 [II-157]	< 500	500 to 5000	–
O=C1NCC(C(=O)Nc2nc(-c3c[nH]c4ncccc34)cs2)N1 (stereo not drawn) [II-147]	< 500	< 500	–
COCC(=O)Nc1nc(-c2c[nH]c3ncccc23)cs1 [II-142]	< 500	500 to 5000	–
CC(CN(C)C)NC(=O)Nc1nc(-c2c[nH]c3ncccc23)cs1 (stereo not drawn) [II-242]	500 to 5000	500 to 5000	–
O=C(Nc1nc(-c2c[nH]c3ncccc23)cs1)N1CCOCC1 [II-236]	500 to 5000	500 to 5000	–
O=C(Nc1nc(-c2c[nH]c3ncccc23)cs1)[C@@H]1CCCN1 [II-171]	< 500	< 500	–
COc1ccc(CC(=O)Nc2nc(-c3c[nH]c4ncc(F)cc34)cs2)c(Cl)c1 [II-150]	< 500	< 500	–
O=C(N[C@@H](CO)c1ccccc1)c1nc(-c2c[nH]c3ncccc23)cs1 [II-185]	< 500	500 to 5000	–
NCCC(C(=O)Nc1nc(-c2c[nH]c3ncccc23)cs1)c1ccc(F)cc1F (stereo not drawn) [II-191]	< 500	< 500	–
O=C(Nc1nc(-c2c[nH]c3ncccc23)cs1)C1CCCO1 (stereo not drawn) [II-154]	< 500	< 500	–
CC(O)C(=O)Nc1nc(-c2c[nH]c3ncccc23)cs1 (stereo not drawn) [II-143]	< 500	500 to 5000	–
CC(=O)N[C@H](C)C(=O)Nc1nc(-c2c[nH]c3ncccc23)cs1 [II-156]	< 500	500 to 5000	–
CC(=O)N[C@@H](C)C(=O)Nc1nc(-c2c[nH]c3ncccc23)cs1 [II-145]	< 500	500 to 5000	–
CN[C@@H](Cc1ccccc1)C(=O)Nc1nc(-c2c[nH]c3ncccc23)cs1 [II-178]	< 500	< 500	–
NCCC(C(=O)Nc1nc(-c2c[nH]c3ncccc23)cs1)c1ccccc1 (stereo not drawn) [II-189]	< 500	< 500	–
CN1CCN(CCCS(=O)(=O)Nc2cccc(CC(=O)Nc3nc(-c4c[nH]c5ncccc45)cs3)c2)CC1 [II-167]	< 500	< 500	–
NCC(C(=O)Nc1nc(-c2c[nH]c3ncccc23)cs1)c1ccccc1Cl (stereo not drawn) [II-194]	< 500	< 500	–

SMILES	Ki (ROCK; [1]) [nM]	Ki (PKA) [nM]	Ki (ROCK) [nM]
CCS(=O)(=O)C(C)C(=O)Nc1nc(-c2c[nH]c3ncccc23)cs1 (stereo not drawn) [II-221]	< 500	< 500	–
C[C@@H](NS(C)(=O)=O)C(=O)Nc1nc(-c2c[nH]c3ncccc23)cs1 [II-228]	< 500	< 500	–
O=C(NCCO)Nc1nc(-c2c[nH]c3ncccc23)cs1 [II-235]	500 to 5000	500 to 5000	–
CC(C)S(=O)(=O)NCC(=O)Nc1nc(-c2c[nH]c3ncccc23)cs1 [II-220]	< 500	< 500	–
O=C(CNCc1ccccc1)Nc1nc(-c2c[nH]c3ncccc23)cs1 [II-188]	< 500	< 500	–
CC(C)CC(=O)C(=O)Nc1nc(-c2c[nH]c3ncccc23)cs1 [II-160]	< 500	< 500	–
CS(=O)(=O)Nc1cccc(C(O)C(=O)Nc2nc(-c3c[nH]c4ncccc34)cs2)c1 (stereo not drawn) [II-211]	< 500	< 500	–
CS(=O)(=O)N[C@@H](COCc1ccccc1)C(=O)Nc1nc(-c2c[nH]c3ncccc23)cs1 [II-233]	< 500	< 500	–
NCC(=O)Nc1nc(-c2c[nH]c3ncccc23)cs1 [II-165]	< 500	< 500	–
C[C@@H](CO)NC(=O)c1nc(-c2c[nH]c3ncccc23)cs1 [II-182]	< 500	500 to 5000	–
CS(=O)(=O)NCC(=O)Nc1nc(-c2c[nH]c3ncccc23)cs1 [II-217]	< 500	< 500	–
CS(=O)(=O)Nc1cccc(CC(=O)Nc2nc(-c3c[nH]c4c3ccc[n+]4[O-])cs2)c1 [II-216]	–	500 to 5000	< 500
O=C(Cc1cccc(OCCCC2CCNCC2)c1)Nc1nc(-c2c[nH]c3ncc(F)cc23)cs1 [II-135]	< 500	< 500	–
N[C@@H](Cc1ccccc1)C(=O)Nc1nc(-c2c[nH]c3ncccc23)cs1 [II-176]	< 500	< 500	–
CCCC(C(=O)Nc1nc(-c2c[nH]c3ncccc23)cs1)S(C)(=O)=O (stereo not drawn) [II-224]	< 500	500 to 5000	–
CC(C)[C@H](NS(C)(=O)=O)C(=O)Nc1nc(-c2c[nH]c3ncccc23)cs1 [II-223]	< 500	< 500	–
O=C(Nc1nc(-c2c[nH]c3ncccc23)cs1)C1CCCNC1 (stereo not drawn) [II-173]	< 500	< 500	–
CN1CCN(CCOc2cccc(CC(=O)Nc3nc(-c4c[nH]c5ncc(F)cc45)cs3)c2)CC1 [II-136]	< 500	500 to 5000	–
CN1CCN(CCCNc2nc(-c3c[nH]c4ncccc34)cs2)CC1 [II-198]	500 to 5000	500 to 5000	–
CS(=O)(=O)Nc1ccc(F)c(CC(=O)Nc2nc(-c3c[nH]c4ncc(F)cc34)cs2)c1 [II-151]	< 500	< 500	–
COc1cccc(CC(=O)Nc2nc(-c3c[nH]c4ncccc34)cs2)c1 [I-2]	–	< 500	–
O=C(Cc1cccc(O)c1)Nc1nc(-c2c[nH]c3ncccc23)cs1 [I-12]	–	< 500	–
